Calls of active or inactive are those of the source. The calls are words filed in the database; no cut-off is given here.

The values below come from ChEMBL document CHEMBL1156879, “Ganodermasides A and B, two novel anti-aging ergosterols from spores of a medicinal mushroom Ganoderma lucidum on yeast via UTH1 gene” (Bioorg Med Chem, 2010).

What all share (format): functional, organism-based
For experiment [1], the system named is Saccharomyces cerevisiae. The experiment is described as follows: Antiaging effect in Saccharomyces cerevisiae K6001 assessed as extension of replicative life span after 2 days.
Experiment [2] concerns Saccharomyces cerevisiae. The experiment is described as follows: Antiaging effect in Saccharomyces cerevisiae K6001 assessed as extension of replicative life span at 10 uM after 2 days.
In experiment [3] the test system is Saccharomyces cerevisiae. The experiment is described as follows: Effect on SOD2 gene expression in Saccharomyces cerevisiae K6001 at 10 uM by RT-PCR.
Experiment [4] concerns Saccharomyces cerevisiae. The experiment is described as follows: Effect on SOD1 gene expression in Saccharomyces cerevisiae K6001 at 10 uM by RT-PCR.
For experiment [5], the system named is Saccharomyces cerevisiae. The experiment is described as follows: Antiaging effect in Saccharomyces cerevisiae K6001 expressing skn7 mutant assessed as extension of replicative life span after 2 days.
In experiment [6] the test system is Saccharomyces cerevisiae. The experiment is described as follows: Antiaging effect in Saccharomyces cerevisiae K6001 expressing uth1 mutant assessed as extension of replicative life span after 2 days.
For experiment [7], the system named is Saccharomyces cerevisiae. The experiment is described as follows: Effect on SIRT1 expression in Saccharomyces cerevisiae K6001 by SIRT1/Sir2 deacetylase fluorometric assay.

Turning to `Oc1ccc(/C=C/c2cc(O)cc(O)c2)cc1`, in experiment [1], the Activity result is “Dose-dependent effect”. Moreover, the result in experiment [2] was Active.
For `CC(C)[C@@H](C)/C=C/[C@@H](C)[C@H]1C[C@@H](O)C2=C3C=CC4=CC(=O)CC[C@]4(C)C3CC[C@@]21C` (some centres undefined), the result in experiment [3], in experiment [4], in experiment [5], in experiment [6] and in experiment [7] was inactive. Besides, the outcome in experiment [2] was Active.
Take `CC(C)[C@@H](C)/C=C/[C@@H](C)[C@H]1C[C@H](O)C2=C3C=CC4=CC(=O)CC[C@]4(C)C3CC[C@@]21C` (some centres undefined): the result in experiment [3], in experiment [4], in experiment [5], in experiment [6] and in experiment [7] was inactive. Further, the outcome in experiment [2] was Active.
